Results from the supplement of paper PMC10307832.

What was measured:
Assay in all cases: relative viability (nuclei count vs DMSO), 5 days (fraction); higher = more cells survive
ChaGo-K-1 = system: ChaGo-K-1
Summary of the method: (§1)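 Each reported value is a median over duplicate plates. It expresses relative viability: treated-well nuclei count divided by vehicle-well nuclei count. Lung cancer cell lines in 1536-well plates were dosed by pin tool a day after seeding, alone with one drug or with a fixed anchor-drug dose plus five library-drug doses (not always all listed) in √10 steps, and nuclei were counted after 5 days.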

EMC-BAC-2 = system: EMC-BAC-2
Summary of the method: as §1

LCLC-97TM1 = system: LCLC-97TM1
Summary of the method: as §1

LXF-289 = system: LXF-289
Summary of the method: as §1

NCI-H1395 = system: NCI-H1395
Summary of the method: as §1

NCI-H1651 = system: NCI-H1651
Summary of the method: as §1

NCI-H1734 = system: NCI-H1734
Summary of the method: as §1

NCI-H1793 = system: NCI-H1793
Summary of the method: as §1

NCI-H1915 = system: NCI-H1915
Summary of the method: as §1

NCI-H1944 = system: NCI-H1944
Summary of the method: as §1

NCI-H2023 = system: NCI-H2023
Summary of the method: as §1

NCI-H2087 = system: NCI-H2087
Summary of the method: as §1

NCI-H2126 = system: NCI-H2126
Summary of the method: as §1

NCI-H2405 = system: NCI-H2405
Summary of the method: as §1

NCI-H3122 = system: NCI-H3122
Summary of the method: as §1

NCI-H322M = system: NCI-H322M
Summary of the method: as §1

NCI-H441 = system: NCI-H441
Summary of the method: as §1

NCI-H522 = system: NCI-H522
Summary of the method: as §1

NCI-H596 = system: NCI-H596
Summary of the method: as §1

NCI-H650 = system: NCI-H650
Summary of the method: as §1

NCI-H661 = system: NCI-H661
Summary of the method: as §1

NCI-H838 = system: NCI-H838
Summary of the method: as §1

PC-14 = system: PC-14
Summary of the method: as §1

SW 1573 = system: SW 1573
Summary of the method: as §1

UMC-11 = system: UMC-11
Summary of the method: as §1

## Nc1cccc2c1CN(C1CCC(=O)NC1=O)C2=O (stereo unspecified) [Lenalidomide] + Cc1cc(Nc2cc(N3CCN(C)CC3)nc(Sc3ccc(NC(=O)C4CC4)cc3)n2)n[nH]1 [Tozasertib] (partner 0.1 µM)
ChaGo-K-1; first compound 0.253 µM
  relative viability: 0.242
ChaGo-K-1; first compound 0.8 µM
  relative viability: 0.228
ChaGo-K-1; first compound 2.53 µM
  relative viability: 0.249
ChaGo-K-1; first compound 8 µM
  relative viability: 0.231
EMC-BAC-2; first compound 0.253 µM
  relative viability: 0.287
EMC-BAC-2; first compound 0.8 µM
  relative viability: 0.272
EMC-BAC-2; first compound 2.53 µM
  relative viability: 0.298
EMC-BAC-2; first compound 8 µM
  relative viability: 0.333
LCLC-97TM1; first compound 0.253 µM
  relative viability: 0.227
LCLC-97TM1; first compound 0.8 µM
  relative viability: 0.277
LCLC-97TM1; first compound 2.53 µM
  relative viability: 0.256
LCLC-97TM1; first compound 8 µM
  relative viability: 0.232
LXF-289; first compound 0.253 µM
  relative viability: 0.206
LXF-289; first compound 0.8 µM
  relative viability: 0.191
LXF-289; first compound 2.53 µM
  relative viability: 0.25
LXF-289; first compound 8 µM
  relative viability: 0.229
NCI-H1395; first compound 0.253 µM
  relative viability: 0.692
NCI-H1395; first compound 0.8 µM
  relative viability: 0.753
NCI-H1395; first compound 2.53 µM
  relative viability: 0.818
NCI-H1395; first compound 8 µM
  relative viability: 0.678
NCI-H1651; first compound 0.253 µM
  relative viability: 0.749
NCI-H1651; first compound 0.8 µM
  relative viability: 0.772
NCI-H1651; first compound 2.53 µM
  relative viability: 0.819
NCI-H1651; first compound 8 µM
  relative viability: 0.815
NCI-H1734; first compound 0.253 µM
  relative viability: 0.312
NCI-H1734; first compound 0.8 µM
  relative viability: 0.271
NCI-H1734; first compound 2.53 µM
  relative viability: 0.232
NCI-H1734; first compound 8 µM
  relative viability: 0.238
NCI-H1793; first compound 0.253 µM
  relative viability: 0.356
NCI-H1793; first compound 2.53 µM
  relative viability: 0.383
NCI-H1793; first compound 8 µM
  relative viability: 0.349
NCI-H1915; first compound 0.253 µM
  relative viability: 0.45
NCI-H1915; first compound 0.8 µM
  relative viability: 0.471
NCI-H1915; first compound 2.53 µM
  relative viability: 0.437
NCI-H1915; first compound 8 µM
  relative viability: 0.527
NCI-H1944; first compound 0.253 µM
  relative viability: 0.234
NCI-H1944; first compound 0.8 µM
  relative viability: 0.278
NCI-H1944; first compound 2.53 µM
  relative viability: 0.285
NCI-H1944; first compound 8 µM
  relative viability: 0.232
NCI-H2023; first compound 0.253 µM
  relative viability: 0.445
NCI-H2023; first compound 0.8 µM
  relative viability: 0.403
NCI-H2023; first compound 2.53 µM
  relative viability: 0.386
NCI-H2023; first compound 8 µM
  relative viability: 0.519
NCI-H2087; first compound 0.253 µM
  relative viability: 0.24
NCI-H2087; first compound 0.8 µM
  relative viability: 0.226
NCI-H2087; first compound 2.53 µM
  relative viability: 0.277
NCI-H2087; first compound 8 µM
  relative viability: 0.242
NCI-H2126; first compound 0.253 µM
  relative viability: 0.873
NCI-H2126; first compound 0.8 µM
  relative viability: 0.817
NCI-H2126; first compound 2.53 µM
  relative viability: 0.82
NCI-H2126; first compound 8 µM
  relative viability: 0.737
NCI-H2405; first compound 0.253 µM
  relative viability: 0.738
NCI-H2405; first compound 0.8 µM
  relative viability: 0.766
NCI-H2405; first compound 2.53 µM
  relative viability: 0.778
NCI-H2405; first compound 8 µM
  relative viability: 0.78
NCI-H3122; first compound 0.253 µM
  relative viability: 0.39
NCI-H3122; first compound 0.8 µM
  relative viability: 0.416
NCI-H3122; first compound 2.53 µM
  relative viability: 0.406
NCI-H3122; first compound 8 µM
  relative viability: 0.522
NCI-H322M; first compound 0.253 µM
  relative viability: 0.471
NCI-H322M; first compound 0.8 µM
  relative viability: 0.566
NCI-H322M; first compound 2.53 µM
  relative viability: 0.49
NCI-H322M; first compound 8 µM
  relative viability: 0.439
NCI-H441; first compound 0.253 µM
  relative viability: 0.72
NCI-H441; first compound 0.8 µM
  relative viability: 0.572
NCI-H441; first compound 2.53 µM
  relative viability: 0.621
NCI-H441; first compound 8 µM
  relative viability: 0.522
NCI-H522; first compound 0.253 µM
  relative viability: 0.574
NCI-H522; first compound 2.53 µM
  relative viability: 0.52
NCI-H522; first compound 8 µM
  relative viability: 0.511
NCI-H596; first compound 0.253 µM
  relative viability: 0.755
NCI-H596; first compound 2.53 µM
  relative viability: 0.904
NCI-H596; first compound 8 µM
  relative viability: 0.774
NCI-H650; first compound 0.253 µM
  relative viability: 0.795
NCI-H650; first compound 2.53 µM
  relative viability: 0.869
NCI-H650; first compound 8 µM
  relative viability: 0.714
NCI-H661; first compound 0.253 µM
  relative viability: 0.379
NCI-H661; first compound 0.8 µM
  relative viability: 0.368
NCI-H661; first compound 2.53 µM
  relative viability: 0.335
NCI-H661; first compound 8 µM
  relative viability: 0.374
NCI-H838; first compound 0.253 µM
  relative viability: 0.322
NCI-H838; first compound 0.8 µM
  relative viability: 0.28
NCI-H838; first compound 2.53 µM
  relative viability: 0.317
NCI-H838; first compound 8 µM
  relative viability: 0.298
PC-14; first compound 0.253 µM
  relative viability: 0.629
PC-14; first compound 0.8 µM
  relative viability: 0.696
PC-14; first compound 2.53 µM
  relative viability: 0.706
PC-14; first compound 8 µM
  relative viability: 0.738
SW 1573; first compound 0.253 µM
  relative viability: 0.159
SW 1573; first compound 0.8 µM
  relative viability: 0.193
SW 1573; first compound 2.53 µM
  relative viability: 0.276
SW 1573; first compound 8 µM
  relative viability: 0.198
UMC-11; first compound 0.253 µM
  relative viability: 0.192
UMC-11; first compound 0.8 µM
  relative viability: 0.21
UMC-11; first compound 2.53 µM
  relative viability: 0.192
UMC-11; first compound 8 µM
  relative viability: 0.195
